# In patent publication US12545637B2, “Extrahepatic targeted cationic lipid compound with high efficiency and low toxicity and its composition” (BEIJING YOUCARE KECHUANG PHARMACEUTICAL TECHNOLOGY CO., LTD., priority 2023, dated 2026):
# Key:
# 293T cells [1] = experiment: Fluorescent detection of Fluc-mRNA (cell transfection efficiency of LNP formulations); assay type: cell-based
# 293T cells [2] = experiment: Cell survival rate assay (CCK-8); assay type: cell-based
# How it was run: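 293T cells seeded at 10,000 cells/well, cultured overnight, then exposed 24 h to LNP carrying 1.5 μg Fluc-mRNA (cationic:neutral:structured:PEG-type lipid 49:10:39.5:1.5) or Lipofectamine 3000. Viability read by CCK-8, 1 h incubation, absorbance at 450 nm.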
# female BALB/C mice = experiment: In vivo imaging in mice of Fluc-mRNA LNP formulations (mRNA expression and duration)
# How it was run: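 Female BALB/C mice (4-6 weeks, 17-19 g) received LNP carrying […] Fluc-mRNA intramuscularly. At 6h, 24 h, 48h and 7d, fluorescent imaging substrate was given intraperitoneally and after 5 minutes average radiance, as a measure of expressed protein, was imaged on an IVIS Spectrum system.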
# 293T cells [3] = experiment: Fluorescent detection of Fluc-mRNA (cell transfection efficiency of LNP formulations); assay type: cell-based; remark: listed apart in the source
compound,measurement,setting,value
"CCCCCCCCC(CCCCCCCC)OC(=O)CCCCCCCN(CCO)CCN(CCO)CCCCCCCC(=O)OC(CCCCCCCC)CCCCCCCC [YK-403, di(heptadecan-9-yl) 8, 8′-(ethane-1,2-diyl-bis((2-hydroxyethyl)azanediyl))dioctanoate]",Relative light unit (RLU),"293T cells [1]; LNP with 0.3 μg Fluc-mRNA, 96-well plate, 24 hours",5249304 RLU
same,"cell transfection efficiency, times that of YK-415",293T cells [1]; ratio vs YK-415,17.61
same,"cell transfection efficiency, times that of YK-417",293T cells [1]; ratio vs YK-417,44.76
same,"cell transfection efficiency, times that of YK-418",293T cells [1]; ratio vs YK-418,47.18
same,"cell transfection efficiency, times that of YK-424",293T cells [1]; ratio vs YK-424,1.82
same,"RLU value, times that of compound 21",293T cells [1]; ratio vs compound 21,3.47
same,"RLU value, times that of compound 23",293T cells [1]; ratio vs compound 23,3.74
same,Cell survival rate,"293T cells [2]; LNP with 1.5 μg Fluc-mRNA, 24 hours, CCK-8",70.76%
same,cell survival rate higher than ALC-0315,293T cells [2]; difference vs ALC-0315,23.55%
same,cell survival rate higher than HIMA,293T cells [2]; difference vs HIMA (HHMA),6.49%
same,cell survival rate higher than Lipofectamine 3000,293T cells [2]; difference vs Lipofectamine 3000,49.10%
same,cell survival rate higher than SM-102,293T cells [2]; difference vs SM-102,2.86%
same,cell survival rate higher than YK-404,293T cells [2]; difference vs YK-404,28.64%
same,cell survival rate higher than YK-405,293T cells [2]; difference vs YK-405,28.90%
same,cell survival rate higher than YK-406,293T cells [2]; difference vs YK-406,45.80%
same,cell survival rate higher than YK-408,293T cells [2]; difference vs YK-408,28.45%
same,cell survival rate higher than YK-409,293T cells [2]; difference vs YK-409,24.65%
same,cell survival rate higher than YK-410,293T cells [2]; difference vs YK-410,25.84%
same,cell survival rate higher than YK-411,293T cells [2]; difference vs YK-411,54.43%
same,cell survival rate higher than YK-412,293T cells [2]; difference vs YK-412,16.62%
same,cell survival rate higher than YK-413,293T cells [2]; difference vs YK-413,23.56%
same,cell survival rate higher than YK-414,293T cells [2]; difference vs YK-414,42.01%
same,cell survival rate higher than YK-415,293T cells [2]; difference vs YK-415,9.60%
same,cell survival rate higher than YK-416,293T cells [2]; difference vs YK-416,29.79%
same,cell survival rate higher than YK-417,293T cells [2]; difference vs YK-417,49.42%
same,cell survival rate higher than YK-418,293T cells [2]; difference vs YK-418,49.71%
same,cell survival rate higher than YK-419,293T cells [2]; difference vs YK-419,31.84%
same,cell survival rate higher than YK-420,293T cells [2]; difference vs YK-420,35.17%
same,cell survival rate higher than YK-421,293T cells [2]; difference vs YK-421,35.05%
same,cell survival rate higher than YK-424,293T cells [2]; difference vs YK-424,42.83%
same,cell survival rate higher than compound 21,293T cells [2]; difference vs compound 21,2.92%
same,cell survival rate higher than compound 23,293T cells [2]; difference vs compound 23,1.65%
same,cytotoxicity reduced compared with YK-411,293T cells [2]; rounded summary statement vs YK-411,50%
same,"average radiation intensity, times that of ALC-0315",female BALB/C mice; 6 h,1.89
same,"average radiation intensity, times that of HHMA",female BALB/C mice; 6 h,2.40
same,"average radiation intensity, times that of SM-102",female BALB/C mice; 6 h,2.30
same,"average radiation intensity, times that of compound 21",female BALB/C mice; 6 h,2.65
same,"average radiation intensity, times that of compound 23",female BALB/C mice; 6 h,2.73
same,"expression amount in mice, times that of YK-415",female BALB/C mice; 6 h,13.48
same,"expression amount in mice, times that of YK-417",female BALB/C mice; 6 h,26.26
same,"mRNA expression in mice, times that of YK-411",female BALB/C mice; 6 h,271.52
same,"average radiation intensity, times that of ALC-0315",female BALB/C mice; 24 h,4.51
same,"average radiation intensity, times that of HHMA",female BALB/C mice; 24 h,7.13
same,"average radiation intensity, times that of SM-102",female BALB/C mice; 24 h,6.93
same,"average radiation intensity, times that of compound 21",female BALB/C mice; 24 h,7.70
same,"average radiation intensity, times that of compound 23",female BALB/C mice; 24 h,8.47
same,"expression amount in mice, times that of YK-415",female BALB/C mice; 24 h,13.26
same,"expression amount in mice, times that of YK-417",female BALB/C mice; 24 h,42.79
same,"mRNA expression in mice, times that of YK-411",female BALB/C mice; 24 h,422.95
same,"average radiation intensity, times that of ALC-0315",female BALB/C mice; 48 h,7.69
same,"average radiation intensity, times that of HHMA",female BALB/C mice; 48 h,9.25
same,"average radiation intensity, times that of SM-102",female BALB/C mice; 48 h,9.39
same,"average radiation intensity, times that of compound 21",female BALB/C mice; 48 h,9.78
same,"average radiation intensity, times that of compound 23",female BALB/C mice; 48 h,9.37
same,"expression amount in mice, times that of YK-415",female BALB/C mice; 48 h,19.54
same,"expression amount in mice, times that of YK-417",female BALB/C mice; 48 h,43.80
same,"mRNA expression in mice, times that of YK-411",female BALB/C mice; 48 h,316.45
same,"average radiation intensity, times that of ALC-0315",female BALB/C mice; 7 d,1.41
same,"average radiation intensity, times that of HHMA",female BALB/C mice; 7 d,1.65
same,"average radiation intensity, times that of SM-102",female BALB/C mice; 7 d,1.47
same,"average radiation intensity, times that of compound 21",female BALB/C mice; 7 d,1.55
same,"average radiation intensity, times that of compound 23",female BALB/C mice; 7 d,1.61
same,"expression amount in mice, times that of YK-415",female BALB/C mice; 7 d,2.44
same,"expression amount in mice, times that of YK-417",female BALB/C mice; 7 d,4.32
same,"mRNA expression in mice, times that of YK-411",female BALB/C mice; 7 d,20.54
same,"average radiation intensity, 6 h","female BALB/C mice; Fluc-mRNA LNP intramuscular, 6 h after administration",1588400
same,"average radiation intensity, 24 h","female BALB/C mice; Fluc-mRNA LNP intramuscular, 24 h after administration",855204
same,"average radiation intensity, 48 h","female BALB/C mice; Fluc-mRNA LNP intramuscular, 48 h after administration",308540
same,"average radiation intensity, 7 d","female BALB/C mice; Fluc-mRNA LNP intramuscular, 7 d after administration",9857
same,"RLU value, times that of ALC-0315",293T cells [3]; ratio vs ALC-0315,2.40
same,"RLU value, times that of HHMA",293T cells [3]; ratio vs HHMA,2.52
same,"RLU value, times that of Lipofectamine 3000",293T cells [3]; ratio vs Lipofectamine 3000,4.37
same,"RLU value, times that of YK-009",293T cells [3]; ratio vs YK-009,1.02
same,"RLU value, times that of YK-405",293T cells [3]; ratio vs YK-405,1.64
same,"RLU value, times that of YK-406",293T cells [3]; ratio vs YK-406,67.08
same,"RLU value, times that of YK-408",293T cells [3]; ratio vs YK-408,3.56
same,"RLU value, times that of YK-409",293T cells [3]; ratio vs YK-409,7.84
same,"RLU value, times that of YK-410",293T cells [3]; ratio vs YK-410,12.87
same,"cell transfection efficiency, times that of YK-412",293T cells [3]; ratio vs YK-412,1.56
same,"cell transfection efficiency, times that of YK-413",293T cells [3]; ratio vs YK-413,3.81
same,"cell transfection efficiency, times that of YK-414",293T cells [3]; ratio vs YK-414,11.82
same,"cell transfection efficiency, times that of YK-416",293T cells [3]; ratio vs YK-416,1.32
same,"cell transfection efficiency, times that of YK-419",293T cells [3]; ratio vs YK-419,1.66
same,"cell transfection efficiency, times that of YK-420",293T cells [3]; ratio vs YK-420,1.31
same,"cell transfection efficiency, times that of YK-421",293T cells [3]; ratio vs YK-421,11.25
